Results on eight molecules are retold here after patent US20140357560A1, “PTH-CONTAINING THERAPEUTIC/PROPHYLACTIC AGENT FOR OSTEOPOROSIS, CHARACTERIZED IN THAT PTH IS ADMINISTERED ONCE A WEEK IN A UNIT DOSE OF 100 TO 200 UNITS” (ASAHI KASEI PHARMA CORPORATION, priority 2009, published 2014).

In data set [1] the test system is nausea and vomiting associated with administration of the test drug. Kind of data set: Working Example 2: drugs to treat nausea and vomiting associated with the test drug. The note with it: for efficacy against nausea and vomiting associated with the test drug (summary): summary of Table 18.
Description: The administration period and efficacy of various drugs to treat nausea and vomiting associated with administration of the test drug were studied.
For data set [2] the following is noted: in vivo.
Protocol: The serum calcium was measured at the start, after 12 weeks, after 24 weeks, after 48 weeks, and after 72 weeks. Serum calcium standard value: 8.4 to 10.4 mg/dL. The standard concomitant drug (610 mg of calcium, 400 IU of vitamin D3, and 30 mg of magnesium) was taken once a day after dinner from the time of consent to the end of the trial.
Data set [3] is described as follows: Working Example 1: serum calcium concentration / hypercalcemia. The format is in vivo, human. Here is the method:
Both the 5 and 100 unit groups were administered two tablets of a calcium agent (containing 500 mg of precipitated calcium carbonate [200 mg as calcium] per tablet) once a day.

For data set [4], the system named is osteoporosis patients having normal renal function, mild or moderate renal dysfunction. The note with it: in vivo.
For data set [5] the following is noted: in vivo. The source holds these as a separate data set.
Protocol: The ratio of the urinary calcium value/urinary creatine value was compared before beginning administration and in the weeks of observation. The urinary calcium was measured at the start, after 12 weeks, after 24 weeks, after 48 weeks, and after 72 weeks.
The conditions of data set [6]: 20 μg/day; blood samples 4 to 6 hours after administration; Non-patent Reference 1; cited from earlier work.
The conditions of data set [7]: conventional daily administration; moderate renal dysfunction; Non-patent Reference 32; cited from earlier work.

Counter-ions that a name gives are not always drawn.

With `CCOc1cc(N)c(Cl)cc1C(=O)NCC1CN(Cc2ccc(F)cc2)CCO1` (stereo not shown) [Gasmotin, mosapride citrate], in data set [1], the “efficacy against nausea and vomiting associated with the test drug (summary)” value (from here on “efficacy”) is listed as “effective”.

Regarding `NC(N)=Nc1nc(CSCCC(N)=NS(N)(=O)=O)cs1` [Gaster D, famotidine], the Effective or ineffective entry in data set [1] (Event: Nausea, before or after test drug: Unknown) is “Effective”. Also, the “efficacy” value in data set [1] is “effective”.

On to `O=c1[nH]c2ccccc2n1CCCN1CCC(n2c(=O)[nH]c3cc(Cl)ccc32)CC1` [Nauzelin, domperidone], for which the Effective or ineffective entry is “Effective” in data set [1] (Event: Nausea, given Before test drug, taken after breakfast, lunch, and dinner); “Effective” in data set [1] (Event: Vomiting, given Before test drug, taken after breakfast, lunch, and dinner). For the same molecule, in data set [1], the “efficacy” value is “effective”.

Regarding `CN1CCN(CCCN2c3ccccc3Sc3ccc(Cl)cc32)CC1.O=C(O)/C=C\C(=O)O.O=C(O)/C=C\C(=O)O` [Novamine], in data set [1] (Event: Nausea, given Before test drug), the Effective or ineffective result is “Ineffective”.

Consider `CCN(CC)CCNC(=O)c1cc(Cl)c(N)cc1OC` [Primperan, metoclopramide], for which the Effective or ineffective entry in data set [1] (Event: Nausea, given Before test drug, listed as Primperan tablet) is “Ineffective”. Besides, the “efficacy” value in data set [1] is recorded as “effective”.

Consider `Cc1c(OCC(F)(F)F)ccnc1C[S+]([O-])c1nc2ccccc2[nH]1` (stereo not shown) [Takepron OD, lansoprazole], for which, in data set [1], the “efficacy” value is “effective”.

For the molecule `CC[C@H](C)[C@H](NC(=O)[C@H](CCC(=O)O)NC(=O)[C@H](CO)NC(=O)[C@@H](NC(=O)[C@@H](N)CO)C(C)C)C(=O)N[C@@H](CCC(N)=O)C(=O)N[C@@H](CC(C)C)C(=O)N[C@@H](CCSC)C(=O)N[C@@H](Cc1cnc[nH]1)C(=O)N[C@@H](CC(N)=O)C(=O)N[C@@H](CC(C)C)C(=O)NCC(=O)N[C@@H](CCCCN)C(=O)N[C@@H](Cc1cnc[nH]1)C(=O)N[C@@H](CC(C)C)C(=O)N[C@@H](CC(N)=O)C(=O)N[C@@H](CO)C(=O)N[C@@H](CCSC)C(=O)N[C@@H](CCC(=O)O)C(=O)N[C@@H](CCCN=C(N)N)C(=O)N[C@H](C(=O)N[C@@H](CCC(=O)O)C(=O)N[C@@H](Cc1c[nH]c2ccccc12)C(=O)N[C@@H](CC(C)C)C(=O)N[C@@H](CCCN=C(N)N)C(=O)N[C@@H](CCCCN)C(=O)N[C@@H](CCCCN)C(=O)N[C@@H](CC(C)C)C(=O)N[C@@H](CCC(N)=O)C(=O)N[C@@H](CC(=O)O)C(=O)N[C@H](C(=O)N[C@@H](Cc1cnc[nH]1)C(=O)N[C@@H](CC(N)=O)C(=O)N[C@@H](Cc1ccccc1)C(=O)O)C(C)C)C(C)C` [teriparatide acetate], in data set [2], the “corrected serum calcium value after administration, maximum” value was 11.6 mg/dL; the “corrected serum calcium value after administration, minimum” value was 8.5 mg/dL; the “corrected serum calcium value, range of the average” value was in the range of 9.3 to 9.6 mg/dL; the “corrected serum calcium, test drug groups versus control group” value is reported as “No significant differences could be found”. Further, in data set [2], the “manifestation of hypercalcemia or hypercalciuria” value is on record as “No manifestation of hypercalcemia or hypercalciuria was found”. Also, in data set [3] (5 or 100 units once a week, high-risk and low-risk patients), the “changes in the serum calcium concentration” value is recorded as “no tendency for the serum calcium to rise was seen”. In data set [3] (once a week, either dose (5 or 100 units), during the administration period), the hypercalcemia entry is recorded as “did not cause hypercalcemia”. Also, the “incidence of side effects relative to the control” value in data set [4] is listed as “about twice that of the control”. In addition, the “median percentage change in the urinary calcium value” in data set [5] is on record as −14.7%.

As for “PTH: parathyroid hormone preparation given daily (20 μg/day) in cited trials, conventional daily administration”, in data set [6], the patients with hypercalcemia is 11% and the “patients with persistent hypercalcemia” value is 3%. Moreover, the “osteoporosis patients with serum calcium exceeding 11.0 mg/mL after administration” value in data set [7] is reported as 11.76%.
